Experimental data from publication doi:10.1101/2025.02.11.637513v1 (bioRxiv, 2025).
“And” between values parts separate entries of the source, which are not always exact repeats. Identical values can stand only once. Non-standard residues stand in square brackets, D forms with d. No end group written: not given here. *: point of attachment. Phe(F5) = N[C@@H](Cc1c(F)c(F)c(F)c(F)c1F)C(=O)O; Bip = N[C@@H](Cc1ccc(-c2ccccc2)cc1)C(=O)O; Phe(4-Cl) = N[C@@H](Cc1ccc(Cl)cc1)C(=O)O; Phe(2-Cl) = N[C@@H](Cc1ccccc1Cl)C(=O)O; 1Nal = N[C@@H](Cc1cccc2ccccc12)C(=O)O; 2Nal = N[C@@H](Cc1ccc2ccccc2c1)C(=O)O; Met(O2) = CS(=O)(=O)CC[C@H](N)C(=O)O; Tic = O=C(O)[C@@H]1Cc2ccccc2CN1; Cha = N[C@@H](CC1CCCCC1)C(=O)O; Phg = N[C@H](C(=O)O)c1ccccc1; Tle = CC(C)(C)[C@H](N)C(=O)O; Abu = CC[C@H](N)C(=O)O; Bn = c1ccc(C*)cc1

Tests used:
Assay in all cases: tetrapeptide-ACC substrate cleavage kinetics
Type in all cases: biochemical
[1] = target: T1, human caspase-9 (Homo sapiens, UniProt P55211); conditions: Ac-P4-P3-P2-Asp-ACC substrate, 0.05-500 μM, 20-150 nM enzyme, 37°C, triplicate
T1 sequence (P55211 1-315 limits assumed): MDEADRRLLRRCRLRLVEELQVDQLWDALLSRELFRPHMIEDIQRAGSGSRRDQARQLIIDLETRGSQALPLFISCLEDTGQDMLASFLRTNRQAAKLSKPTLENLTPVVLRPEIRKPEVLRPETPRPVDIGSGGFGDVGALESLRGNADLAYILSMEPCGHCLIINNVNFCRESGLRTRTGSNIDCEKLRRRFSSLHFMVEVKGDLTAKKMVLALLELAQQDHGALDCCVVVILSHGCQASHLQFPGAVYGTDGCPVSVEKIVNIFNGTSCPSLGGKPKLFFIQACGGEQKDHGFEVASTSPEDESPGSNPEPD
T1 sequence (P55211 331-416 limits assumed): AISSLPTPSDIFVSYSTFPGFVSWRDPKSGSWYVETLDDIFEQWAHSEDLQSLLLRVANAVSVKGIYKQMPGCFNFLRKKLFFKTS

[2] = target: T2, human caspase-1 (Homo sapiens, UniProt P29466); conditions: Ac-P4-P3-P2-Asp-ACC substrate, 0.05-500 μM, 2-15 nM enzyme, 37°C, triplicate
T2 sequence (P29466 120-297 limits assumed): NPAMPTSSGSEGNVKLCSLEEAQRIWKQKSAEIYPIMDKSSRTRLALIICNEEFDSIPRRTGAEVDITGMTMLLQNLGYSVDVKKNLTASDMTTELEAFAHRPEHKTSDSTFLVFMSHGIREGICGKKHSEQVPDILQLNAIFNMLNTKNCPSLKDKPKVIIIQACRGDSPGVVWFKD
T2 sequence (P29466 317-404 limits assumed): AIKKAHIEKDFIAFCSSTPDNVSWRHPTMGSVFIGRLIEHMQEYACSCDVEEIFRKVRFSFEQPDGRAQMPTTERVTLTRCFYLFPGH

[3] = target: T3, human caspase-5 (Homo sapiens, UniProt P51878); conditions: Ac-P4-P3-P2-Asp-ACC substrate, 0.05-500 μM, 20-250 nM enzyme, 37°C, triplicate
T3 sequence (P51878 137-327 limits assumed): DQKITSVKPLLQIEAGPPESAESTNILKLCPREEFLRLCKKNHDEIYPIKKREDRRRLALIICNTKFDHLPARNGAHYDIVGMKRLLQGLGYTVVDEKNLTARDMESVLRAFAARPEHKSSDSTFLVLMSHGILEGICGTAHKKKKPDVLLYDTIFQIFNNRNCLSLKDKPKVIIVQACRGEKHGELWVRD
T3 sequence (P51878 347-434 limits assumed): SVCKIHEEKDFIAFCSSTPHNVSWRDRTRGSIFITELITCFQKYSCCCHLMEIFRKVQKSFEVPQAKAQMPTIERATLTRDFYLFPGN

[4] = target: T4, human caspase-4 (Homo sapiens, UniProt P49662); conditions: Ac-P4-P3-P2-Asp-ACC substrate, 0.05-500 μM, 35-200 nM enzyme, 37°C, triplicate
T4 sequence (P49662 81-270 limits assumed): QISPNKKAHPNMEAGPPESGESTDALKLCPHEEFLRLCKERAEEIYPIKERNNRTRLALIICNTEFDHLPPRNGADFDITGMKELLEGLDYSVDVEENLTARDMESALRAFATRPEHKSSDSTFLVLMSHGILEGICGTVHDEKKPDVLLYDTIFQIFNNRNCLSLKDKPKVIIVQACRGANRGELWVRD
T4 sequence (P49662 290-377 limits assumed): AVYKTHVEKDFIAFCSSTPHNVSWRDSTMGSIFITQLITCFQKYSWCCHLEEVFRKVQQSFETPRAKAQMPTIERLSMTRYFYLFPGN

[5] = target: human caspase-8 (Homo sapiens, UniProt Q14790); conditions: Ac-P4-P3-P2-Asp-ACC substrate, 0.05-500 μM, 6-42 nM enzyme, 37°C, triplicate
[6] = target: T5, human caspase-7 (Homo sapiens, UniProt P55210); conditions: Ac-P4-P3-P2-Asp-ACC substrate, 0.05-500 μM, 40-400 nM enzyme, 37°C, triplicate
T5 sequence (P55210 24-198 limits assumed): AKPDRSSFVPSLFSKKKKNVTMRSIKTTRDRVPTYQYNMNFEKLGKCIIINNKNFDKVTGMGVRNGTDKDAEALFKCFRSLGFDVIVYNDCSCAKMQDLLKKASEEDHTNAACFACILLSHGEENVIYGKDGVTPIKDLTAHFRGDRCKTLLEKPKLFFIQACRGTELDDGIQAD
T5 sequence (P55210 207-303 limits assumed): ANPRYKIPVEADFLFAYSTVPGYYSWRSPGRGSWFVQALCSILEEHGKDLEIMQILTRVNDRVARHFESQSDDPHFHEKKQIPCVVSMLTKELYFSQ

[7] = target: T6, human caspase-3 (Homo sapiens, UniProt P42574); conditions: Ac-P4-P3-P2-Asp-ACC substrate, 0.05-500 μM, 3-35 nM enzyme, 37°C, triplicate
T6 sequence (P42574 29-175 limits assumed): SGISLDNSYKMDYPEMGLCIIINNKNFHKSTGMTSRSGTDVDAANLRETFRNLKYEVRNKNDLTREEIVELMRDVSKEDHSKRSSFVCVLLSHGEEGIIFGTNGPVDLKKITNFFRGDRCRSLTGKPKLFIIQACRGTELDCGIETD
T6 sequence (P42574 176-277 limits assumed): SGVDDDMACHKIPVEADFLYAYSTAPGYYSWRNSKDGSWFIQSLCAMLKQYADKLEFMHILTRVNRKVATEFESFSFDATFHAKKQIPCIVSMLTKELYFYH

Chain of human caspase-8 (Q14790 217-374 limits assumed): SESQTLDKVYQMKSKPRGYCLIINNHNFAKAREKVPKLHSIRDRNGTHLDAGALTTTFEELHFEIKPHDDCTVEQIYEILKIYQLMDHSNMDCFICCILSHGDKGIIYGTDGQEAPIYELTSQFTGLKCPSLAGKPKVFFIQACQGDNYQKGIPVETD
Chain of human caspase-8 (Q14790 385-479 limits assumed): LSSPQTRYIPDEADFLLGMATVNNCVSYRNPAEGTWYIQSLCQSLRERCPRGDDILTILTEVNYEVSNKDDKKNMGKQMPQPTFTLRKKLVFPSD

Substance | kcat/KM caspase-9 [1] | kcat/KM caspase-1 [2] | kcat/KM caspase-5 [3] | kcat/KM caspase-4 [4] | kcat/KM caspase-8 [5] | kcat/KM caspase-7 [6] | kcat/KM caspase-3 [7]
W[Met(O2)]HD | 6 700 M^-1s^-1 | 547 600 M^-1s^-1 | 15 430 M^-1s^-1 | 9 620 M^-1s^-1 | 2 380 M^-1s^-1 | 60 M⁻¹ s⁻¹ | 4 970 M^-1s^-1
W[Tle]HD | 10 220 M^-1s^-1 | 271 900 M^-1s^-1 | 12 930 M^-1s^-1 | 10 640 M^-1s^-1 | 1 240 M^-1s^-1 | 40 M⁻¹ s⁻¹ | 600 M⁻¹ s⁻¹
Y(Me)QTD | 550 M⁻¹ s⁻¹ | 105 200 M^-1s^-1 | 2 420 M^-1s^-1 | 810 M⁻¹ s⁻¹ | 2 670 M^-1s^-1 | 1 530 M^-1s^-1 | 8 740 M^-1s^-1
YT(Bn)HD | 7 970 M^-1s^-1 | 201 400 M^-1s^-1 | 6 920 M^-1s^-1 | 1 260 M^-1s^-1 | 4 760 M^-1s^-1 | 270 M⁻¹ s⁻¹ | 4 500 M^-1s^-1
Y[Phe(F5)]HD | 7 300 M^-1s^-1 | 161 900 M^-1s^-1 | 14 900 M^-1s^-1 | 2 270 M^-1s^-1 | 3 150 M^-1s^-1 | 210 M⁻¹ s⁻¹ | 8 500 M^-1s^-1
[1Nal]Q[Abu]D | 100 M⁻¹ s⁻¹ | 168 100 M^-1s^-1 | 4 640 M^-1s^-1 | 2 190 M^-1s^-1 | 4 420 M^-1s^-1 | 220 M⁻¹ s⁻¹ | 1 660 M^-1s^-1
[2Nal]THD | 5 660 M^-1s^-1 | 146 200 M^-1s^-1 | 7 860 M^-1s^-1 | 2 450 M^-1s^-1 | 1 990 M^-1s^-1 | 70 M⁻¹ s⁻¹ | 830 M⁻¹ s⁻¹
[Cha]EHD | 8 770 M^-1s^-1 and 9 270 M^-1s^-1 | 184 300 M^-1s^-1 and 113 800 M^-1s^-1 | 34 640 M^-1s^-1 and 48 140 M^-1s^-1 | 21 340 M^-1s^-1 and 25 050 M^-1s^-1 | 28 040 M^-1s^-1 and 27 690 M^-1s^-1 | 370 M⁻¹ s⁻¹ and 380 M⁻¹ s⁻¹ | 6 390 M^-1s^-1 and 6 530 M^-1s^-1
[Cha]E[Tic]D | 7 760 M^-1s^-1 | 159 100 M^-1s^-1 | 28 860 M^-1s^-1 | 37 900 M^-1s^-1 | 7 860 M^-1s^-1 | 950 M⁻¹ s⁻¹ | 10 440 M^-1s^-1
[Phe(2-Cl)]E[Tic]D | 5 410 M^-1s^-1 | 243 800 M^-1s^-1 | 16 790 M^-1s^-1 | 15 180 M^-1s^-1 | 13 980 M^-1s^-1 | 10 040 M^-1s^-1 | 75 860 M^-1s^-1
[Tle]MHD | 8 360 M^-1s^-1 | 23 100 M^-1s^-1 | 5 120 M^-1s^-1 | 2 020 M^-1s^-1 | 14 800 M^-1s^-1 | 280 M⁻¹ s⁻¹ | 20 740 M^-1s^-1
[Tle][Bip]HD | 8 430 M^-1s^-1 | 10 900 M^-1s^-1 | 5 280 M^-1s^-1 | 2 820 M^-1s^-1 | 11 700 M^-1s^-1 | 160 M⁻¹ s⁻¹ | 16 920 M^-1s^-1
[Tle][Phe(2-Cl)]HD | 8 070 M^-1s^-1 | 31 900 M^-1s^-1 | 6 990 M^-1s^-1 | 4 030 M^-1s^-1 | 6 220 M^-1s^-1 | 350 M⁻¹ s⁻¹ | 26 070 M^-1s^-1
[Tle][Phe(4-Cl)]HD | 9 100 M^-1s^-1 | 13 300 M^-1s^-1 | 7 360 M^-1s^-1 | 2 500 M^-1s^-1 | 10 600 M^-1s^-1 | 160 M⁻¹ s⁻¹ | 21 330 M^-1s^-1
[Tle][Phg]HD | 9 870 M^-1s^-1 | 4 300 M^-1s^-1 | 490 M⁻¹ s⁻¹ | 320 M⁻¹ s⁻¹ | 2 030 M^-1s^-1 | 40 M⁻¹ s⁻¹ | 6 710 M^-1s^-1
